Laboratory results taken from ChEMBL document CHEMBL1201862, “PubChem BioAssay data set” (2004).
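Interpolation was linear, between the two tested concentrations surrounding the appropriate level; five concentrations were tested over 48 hours in 96-well plates. GI50 marks 50% less growth.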 Calls of active or inactive are those of the source. Rule as the data show it: active = GI50 up to about 1.1 µM and inactive = higher.

Columns and labels:
Assay in all cases: inhibition of tumour cell growth, NCI panel, 48 h
UO-31 = test system: UO-31
HL-60 = test system: HL-60
NCI/ADR-RES = test system: NCI/ADR-RES
NCI-H460 = test system: NCI-H460
NCI-H522 = test system: NCI-H522
BT-549 = test system: BT-549
SK-MEL-5 = test system: SK-MEL-5
SK-MEL-2 = test system: SK-MEL-2
HCT-116 = test system: HCT-116
SF-295 = test system: SF-295
M14 = test system: M14
Hs-578T = test system: Hs-578T
MDA-MB-435 = test system: MDA-MB-435
HCC 2998 = test system: HCC 2998
A549 = test system: A549
OVCAR-5 = test system: OVCAR-5
CCRF-CEM = test system: CCRF-CEM
SF-539 = test system: SF-539
T47D = test system: T47D
HOP-92 = test system: HOP-92
CAKI-1 = test system: CAKI-1
DU-145 = test system: DU-145
SW-620 = test system: SW-620
RPMI-8226 = test system: RPMI-8226
SK-OV-3 = test system: SK-OV-3
A498 = test system: A498
LOX IMVI = test system: LOX IMVI
U-251 = test system: U-251
MCF7 = test system: MCF7
PC-3 = test system: PC-3
SF-268 = test system: SF-268
KM12 = test system: KM12
SNB-75 = test system: SNB-75
ACHN = test system: ACHN
786-0 = test system: 786-0
K562 = test system: K562
NCI-H226 = test system: NCI-H226
EKVX = test system: EKVX
NCI-H23 = test system: NCI-H23
UACC-257 = test system: UACC-257
OVCAR-4 = test system: OVCAR-4
HT-29 = test system: HT-29
MOLT-4 = test system: MOLT-4
SNB-19 = test system: SNB-19
TK-10 = test system: TK-10
SN12C = test system: SN12C
RXF 393 = test system: RXF 393
OVCAR-8 = test system: OVCAR-8
MDA-MB-231 = test system: MDA-MB-231
IGROV-1 = test system: IGROV-1
HOP-62 = test system: HOP-62
UACC-62 = test system: UACC-62
COLO 205 = test system: COLO 205
HCT-15 = test system: HCT-15
OVCAR-3 = test system: OVCAR-3
MDA-N = test system: MDA-N
Malme-3M = test system: Malme-3M

**Q.** Which GI50 (UO-31) does the source give for `CC1=C(C(=O)N(C(C)C)C(C)C)CC(C(=O)N(C(C)C)C(C)C)=C(C)N1` here?
**A.** > 100 µM (inactive)

**Q.** What about the GI50 (HL-60) of the same molecule?
**A.** > 100 µM (inactive)

**Q.** And the GI50 (NCI/ADR-RES)?
**A.** > 100 µM (inactive)

**Q.** What about the GI50 (NCI-H460) of the same molecule?
**A.** > 100 µM (inactive)

**Q.** And the GI50 (NCI-H522)?
**A.** > 100 µM (inactive)

**Q.** What about the GI50 (BT-549) of the same molecule?
**A.** > 100 µM (inactive)

**Q.** And the GI50 (SK-MEL-5)?
**A.** > 100 µM (inactive)

**Q.** And the GI50 (SK-MEL-2)?
**A.** > 100 µM (inactive)

**Q.** What about the GI50 (HCT-116) of the same molecule?
**A.** > 100 µM (inactive)

**Q.** And the GI50 (SF-295)?
**A.** > 100 µM (inactive)

**Q.** And the GI50 (M14)?
**A.** > 100 µM (inactive)

**Q.** What about the GI50 (Hs-578T) of the same molecule?
**A.** > 100 µM (inactive)

**Q.** And the GI50 (MDA-MB-435)?
**A.** 79.8 µM (inactive)

**Q.** And the GI50 (HCC 2998)?
**A.** > 100 µM (inactive)

**Q.** And the GI50 (A549)?
**A.** > 100 µM (inactive)

**Q.** What about the GI50 (OVCAR-5) of the same molecule?
**A.** > 100 µM (inactive)

**Q.** What about the GI50 (CCRF-CEM) of the same molecule?
**A.** > 100 µM (inactive)

**Q.** What about the GI50 (SF-539) of the same molecule?
**A.** > 100 µM (inactive)

**Q.** What about the GI50 (T47D) of the same molecule?
**A.** 49.3 µM (inactive)

**Q.** And the GI50 (HOP-92)?
**A.** > 100 µM (inactive)

**Q.** And the GI50 (CAKI-1)?
**A.** > 100 µM (inactive)

**Q.** And the GI50 (DU-145)?
**A.** > 100 µM (inactive)

**Q.** And the GI50 (SW-620)?
**A.** > 100 µM (inactive)

**Q.** What about the GI50 (RPMI-8226) of the same molecule?
**A.** > 100 µM (inactive)

**Q.** And the GI50 (SK-OV-3)?
**A.** > 100 µM (inactive)

**Q.** And the GI50 (A498)?
**A.** 35.8 µM (inactive)

**Q.** What about the GI50 (LOX IMVI) of the same molecule?
**A.** > 100 µM (inactive)

**Q.** What about the GI50 (U-251) of the same molecule?
**A.** > 100 µM (inactive)

**Q.** What about the GI50 (MCF7) of the same molecule?
**A.** > 100 µM (inactive)

**Q.** And the GI50 (PC-3)?
**A.** 96.6 µM (inactive)

**Q.** What about the GI50 (SF-268) of the same molecule?
**A.** > 100 µM (inactive)

**Q.** What about the GI50 (KM12) of the same molecule?
**A.** > 100 µM (inactive)

**Q.** And the GI50 (SNB-75)?
**A.** 16.4 µM (inactive)

**Q.** And the GI50 (ACHN)?
**A.** > 100 µM (inactive)

**Q.** What about the GI50 (786-0) of the same molecule?
**A.** > 100 µM (inactive)

**Q.** What about the GI50 (K562) of the same molecule?
**A.** > 100 µM (inactive)

**Q.** And the GI50 (NCI-H226)?
**A.** > 100 µM (inactive)

**Q.** What about the GI50 (EKVX) of the same molecule?
**A.** > 100 µM (inactive)

**Q.** What about the GI50 (NCI-H23) of the same molecule?
**A.** > 100 µM (inactive)

**Q.** And the GI50 (UACC-257)?
**A.** > 100 µM (inactive)

**Q.** And the GI50 (OVCAR-4)?
**A.** > 100 µM (inactive)

**Q.** What about the GI50 (HT-29) of the same molecule?
**A.** > 100 µM (inactive)

**Q.** And the GI50 (MOLT-4)?
**A.** > 100 µM (inactive)

**Q.** What about the GI50 (SNB-19) of the same molecule?
**A.** > 100 µM (inactive)

**Q.** What about the GI50 (TK-10) of the same molecule?
**A.** > 100 µM (inactive)

**Q.** And the GI50 (SN12C)?
**A.** > 100 µM (inactive)

**Q.** And the GI50 (RXF 393)?
**A.** > 100 µM (inactive)

**Q.** And the GI50 (OVCAR-8)?
**A.** > 100 µM (inactive)

**Q.** What about the GI50 (MDA-MB-231) of the same molecule?
**A.** 54.1 µM (inactive)

**Q.** What about the GI50 (IGROV-1) of the same molecule?
**A.** > 100 µM (inactive)

**Q.** And the GI50 (HOP-62)?
**A.** > 100 µM (inactive)

**Q.** What about the GI50 (UACC-62) of the same molecule?
**A.** > 100 µM (inactive)

**Q.** And the GI50 (COLO 205)?
**A.** > 100 µM (inactive)

**Q.** What about the GI50 (HCT-15) of the same molecule?
**A.** > 100 µM

**Q.** What about the GI50 (OVCAR-3) of the same molecule?
**A.** > 100 µM (inactive)

**Q.** What about the GI50 (MDA-N) of the same molecule?
**A.** > 100 µM (inactive)

**Q.** How did the GI50 (UO-31) turn out when `CN(C)/C=C/c1nnc([N+](=O)[O-])s1` was run?
**A.** 15.3 µM (inactive)

**Q.** And the GI50 (NCI/ADR-RES)?
**A.** 16.5 µM (inactive)

**Q.** What about the GI50 (NCI-H460) of the same molecule?
**A.** 11.6 µM (inactive)

**Q.** And the GI50 (NCI-H522)?
**A.** 1.66 µM (inactive)

**Q.** And the GI50 (BT-549)?
**A.** 17.9 µM (inactive)

**Q.** And the GI50 (SK-MEL-5)?
**A.** 12 µM (inactive)

**Q.** And the GI50 (SK-MEL-2)?
**A.** 17.2 µM (inactive)

**Q.** What about the GI50 (HCT-116) of the same molecule?
**A.** 5.94 µM (inactive)

**Q.** And the GI50 (SF-295)?
**A.** 13.8 µM (inactive)

**Q.** And the GI50 (M14)?
**A.** 14.6 µM (inactive)

**Q.** What about the GI50 (Hs-578T) of the same molecule?
**A.** 14.5 µM (inactive)

**Q.** What about the GI50 (MDA-MB-435) of the same molecule?
**A.** 3.69 µM (inactive)

**Q.** And the GI50 (HCC 2998)?
**A.** 17.3 µM (inactive)

**Q.** What about the GI50 (A549) of the same molecule?
**A.** 19.9 µM (inactive)

**Q.** What about the GI50 (SF-539) of the same molecule?
**A.** 8.79 µM (inactive)

**Q.** And the GI50 (T47D)?
**A.** 15.3 µM (inactive)

**Q.** What about the GI50 (CAKI-1) of the same molecule?
**A.** 18.2 µM (inactive)

**Q.** And the GI50 (DU-145)?
**A.** 15.2 µM (inactive)

**Q.** And the GI50 (SW-620)?
**A.** 16.8 µM (inactive)

**Q.** And the GI50 (Malme-3M)?
**A.** 4.22 µM (inactive)

**Q.** And the GI50 (RPMI-8226)?
**A.** < 0.01 µM (active)

**Q.** And the GI50 (SK-OV-3)?
**A.** 20.7 µM (inactive)

**Q.** And the GI50 (A498)?
**A.** 32 µM (inactive)

**Q.** And the GI50 (LOX IMVI)?
**A.** 2.69 µM (inactive)

**Q.** And the GI50 (U-251)?
**A.** 17.7 µM (inactive)

**Q.** And the GI50 (MCF7)?
**A.** 2.17 µM (inactive)

**Q.** And the GI50 (PC-3)?
**A.** 4.95 µM (inactive)

**Q.** And the GI50 (SF-268)?
**A.** 14.6 µM (inactive)

**Q.** And the GI50 (KM12)?
**A.** 7.73 µM (inactive)

**Q.** What about the GI50 (SNB-75) of the same molecule?
**A.** 23.9 µM (inactive)

**Q.** What about the GI50 (ACHN) of the same molecule?
**A.** 15.5 µM (inactive)

**Q.** What about the GI50 (786-0) of the same molecule?
**A.** 11.3 µM (inactive)

**Q.** And the GI50 (NCI-H226)?
**A.** 20.5 µM (inactive)

**Q.** What about the GI50 (NCI-H23) of the same molecule?
**A.** 19.3 µM (inactive)

**Q.** And the GI50 (UACC-257)?
**A.** 14.2 µM (inactive)

**Q.** What about the GI50 (HT-29) of the same molecule?
**A.** 3.57 µM (inactive)

**Q.** What about the GI50 (SNB-19) of the same molecule?
**A.** 26.3 µM (inactive)

**Q.** And the GI50 (TK-10)?
**A.** 25.9 µM (inactive)

**Q.** And the GI50 (SN12C)?
**A.** 18.8 µM (inactive)

**Q.** And the GI50 (RXF 393)?
**A.** 14.7 µM (inactive)

**Q.** What about the GI50 (OVCAR-8) of the same molecule?
**A.** 17.1 µM (inactive)

**Q.** And the GI50 (MDA-MB-231)?
**A.** 18.2 µM (inactive)

**Q.** And the GI50 (HOP-62)?
**A.** 22.8 µM (inactive)

**Q.** What about the GI50 (UACC-62) of the same molecule?
**A.** 16.4 µM (inactive)

**Q.** And the GI50 (COLO 205)?
**A.** 3.58 µM (inactive)

**Q.** What about the GI50 (HCT-15) of the same molecule?
**A.** 12 µM

**Q.** What about the GI50 (OVCAR-3) of the same molecule?
**A.** 2.65 µM (inactive)

**Q.** What about the GI50 (MDA-N) of the same molecule?
**A.** 4.28 µM (inactive)
